The values below come from ChEMBL document CHEMBL1833833, “Design and synthesis of long acting inhaled corticosteroids for the treatment of asthma” (Bioorg Med Chem Lett, 2011).

In general, IC50 refers to the concentration at which inhibition is half-maximal. A low value points to inhibition by little substance. One may read the bioavailability as the share of a dose that reaches the circulation, judged against a reference dose that is usually intravenous. The solubility is how much of the substance goes into solution per volume. For orientation: clearance means a measure of how efficiently the substance is removed, as volume per time. Usually half-life stands for the time needed for the level to fall by half in the phase considered. The low end stands for fast loss, the high end for slow loss.

Data set [1] concerns the target T1, Estrogen receptor (Homo sapiens) (UniProt P03372).
T1 sequence (whole entry): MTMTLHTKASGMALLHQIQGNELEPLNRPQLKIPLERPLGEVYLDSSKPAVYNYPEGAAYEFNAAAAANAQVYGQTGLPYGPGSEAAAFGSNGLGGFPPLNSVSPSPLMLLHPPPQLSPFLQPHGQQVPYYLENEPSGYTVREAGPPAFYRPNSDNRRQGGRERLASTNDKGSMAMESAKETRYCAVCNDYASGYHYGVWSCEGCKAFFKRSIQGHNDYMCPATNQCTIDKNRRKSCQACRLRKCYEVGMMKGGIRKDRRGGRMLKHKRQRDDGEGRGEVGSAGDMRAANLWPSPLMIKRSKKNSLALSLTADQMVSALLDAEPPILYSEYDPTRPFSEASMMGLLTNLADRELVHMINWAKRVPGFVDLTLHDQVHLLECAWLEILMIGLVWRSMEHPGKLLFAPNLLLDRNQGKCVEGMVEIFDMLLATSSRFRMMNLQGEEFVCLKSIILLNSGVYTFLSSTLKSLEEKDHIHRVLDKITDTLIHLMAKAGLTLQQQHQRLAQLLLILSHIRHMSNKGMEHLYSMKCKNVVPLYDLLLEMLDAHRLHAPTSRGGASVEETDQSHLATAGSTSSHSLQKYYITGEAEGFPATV
The data set is described as follows: Agonist activity at human ER. The data set is classed as functional.

Data set [2] in a line: Metabolic stability of compound in human liver microsomes assessed as intrinsic clearance by equilibrium dialysis. The data set is classed as ADME, Microsome.
Data set [3] in a line: Antiinflammatory activity in rat assessed as inhibition of LPS-induced lung neutrophilia at 10 ug, intratracheally administered 4 hr prior to LPS challenge measured after 8 hrs. The class given is functional, Neutrophil.
A short description of data set [4]: Antiinflammatory activity in intratracheally dosed rat assessed as effective dose for inhibition of LPS-induced lung neutrophilia. The data set is classed as functional, Neutrophil.
For data set [5], the target named is T2, Androgen receptor (Homo sapiens) (UniProt P10275).
T2 sequence (whole entry): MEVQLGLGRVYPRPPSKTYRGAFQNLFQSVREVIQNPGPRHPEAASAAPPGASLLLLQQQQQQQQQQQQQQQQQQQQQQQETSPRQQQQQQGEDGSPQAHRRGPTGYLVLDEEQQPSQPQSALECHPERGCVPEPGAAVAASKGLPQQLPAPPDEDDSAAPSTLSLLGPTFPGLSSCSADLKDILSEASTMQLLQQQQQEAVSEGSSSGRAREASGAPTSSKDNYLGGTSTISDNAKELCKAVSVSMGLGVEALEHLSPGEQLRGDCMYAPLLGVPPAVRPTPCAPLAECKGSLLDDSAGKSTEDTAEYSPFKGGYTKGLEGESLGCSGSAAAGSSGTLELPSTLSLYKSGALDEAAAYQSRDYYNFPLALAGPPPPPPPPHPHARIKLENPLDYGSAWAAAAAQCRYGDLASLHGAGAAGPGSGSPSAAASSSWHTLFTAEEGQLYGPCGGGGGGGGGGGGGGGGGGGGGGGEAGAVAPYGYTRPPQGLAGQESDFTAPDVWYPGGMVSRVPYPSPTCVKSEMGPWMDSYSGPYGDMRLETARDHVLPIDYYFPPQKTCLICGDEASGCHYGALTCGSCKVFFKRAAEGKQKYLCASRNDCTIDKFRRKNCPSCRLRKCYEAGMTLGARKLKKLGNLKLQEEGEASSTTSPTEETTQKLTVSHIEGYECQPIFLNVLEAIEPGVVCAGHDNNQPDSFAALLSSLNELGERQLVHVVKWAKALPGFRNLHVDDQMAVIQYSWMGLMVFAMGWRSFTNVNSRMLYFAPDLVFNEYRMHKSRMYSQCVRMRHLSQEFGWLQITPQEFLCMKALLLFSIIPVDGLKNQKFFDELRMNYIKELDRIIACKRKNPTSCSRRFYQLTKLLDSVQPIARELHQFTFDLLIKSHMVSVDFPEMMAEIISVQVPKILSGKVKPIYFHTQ
In words: Agonist activity at human AR. The data set is classed as functional.

Data set [6] concerns Blood. The data set is described as follows: Inhibition of TNFalpha release in LPS-stimulated human whole blood by ELISA assay. The class given is functional, tissue-based. For orientation: ELISA stands for enzyme-linked immunosorbent assay.
Data set [7] in a line: Metabolic stability in human liver microsomes assessed as phase 2 glucuronidation in presence of UDPGA. The data set is classed as ADME, Microsome. To be noted: read-out: Stability.
Data set [8] relates to Rattus norvegicus. In words: Unbound clearance in rat at 0.5 mg/kg, iv. The class given is ADME, organism-based. Further details: dose 0.5 mg/kg, route intravenous. To be noted: in vivo.
Data set [9] is described as follows: Oral bioavailability in rat at 2 mg/kg. The data set is classed as ADME, organism-based. To be noted: in vivo.
Data set [10] in a line: Solubility of compound in simulated lung fluid by dialysis bag method. The data set is classed as physicochemical.
Data set [11] in a line: Antiinflammatory activity in rat assessed as inhibition of LPS-induced lung neutrophilia at 10 ug, intratracheally administered 4 hr prior to LPS challenge measured after 1 hr. The class given is functional, Neutrophil.
Data set [12] relates to PBMC. The data set is described as follows: Inhibition of TNFalpha release in human PBMC by ELISA assay. The data set is classed as functional, cell-based.
Data set [13] can be described thus: Antiinflammatory activity in rat assessed as inhibition of LPS-induced lung neutrophilia at 10 ug, intratracheally administered 4 hr prior to LPS challenge measured after 24 hrs. The data set is classed as functional, Neutrophil.
For data set [14], the target named is T2, Androgen receptor (Homo sapiens). In words: Antagonist activity at human AR. The data set is classed as functional.
The test system of data set [15] is Rattus norvegicus. In words: Clearance in rat at 0.5 mg/kg, iv. The class given is ADME, organism-based. On the set-up: dose 0.5 mg/kg, route intravenous. The following applies: in vivo.
The nature of data set [16]: Half life in rat. The data set is classed as ADME, organism-based. To be noted: in vivo.
The nature of data set [17]: Antiinflammatory activity in rat assessed as inhibition of LPS-induced lung neutrophilia at 10 ug, intratracheally administered 4 hr prior to LPS challenge measured after 4 hrs. The data set is classed as functional, Neutrophil.
Data set [18] has as its target T1, Estrogen receptor (Homo sapiens). The data set is described as follows: Antagonist activity at human ER. The data set is classed as functional.

≈ marks a conversion by molar mass, not a printed value. Calls of active or inactive are those of the source. Where only a bound is given, the exact number is not on record here.

Take `C[C@]12C=CC(=O)C=C1[C@@H](F)C[C@H]1[C@@H]3C[C@H]4O[C@@H](c5ccc(CSc6ccc(O)c(Cl)c6)cc5)O[C@@]4(C(=O)CO)[C@@]3(C)C[C@H](O)[C@@]12F`: the result in [1], in data set [5], in data set [14] and in data set [18] was inactive. The values for the microsomal CLint in data set [2] and in data set [7] were 122 µL/min/mg and 100 µL/min/mg, respectively. In addition, the “inhibition (INH)” value in data set [3] was determined as 46%; in [11], 52%; in [13] it was 24%; in data set [17] it was 59%. Also, the ED50 in [4] came to 36 µg. The IC50 is 8.73 nM in data set [6] and 0.03 nM in [12]. This compound also came in with a CL free in [8] of over 59000 mL/min/kg. Besides, the bioavailability in data set [9] was under 1%. In [10], this compound registered a solubility of 0.36 µg/mL (≈ 0.535 µM). The compound also came in with a clearance in data set [15] of 84 mL/min/kg. The compound also gave a half-life in [16] of 2.8 h.
